In patent US5994336A, “Method of inhibiting proliferation of cells by administering an aminosterol compound” (priority 1995, dated 1999) one finds stability in water data, which are given here for one molecule.

The series in a line: Chemical stability. Format: physicochemical.

Regarding `CC(CCC(=O)C(C)(C)OS(=O)(=O)O)[C@H]1CCC2C3C(CC[C@@]21C)[C@@]1(C)CC[C@H](NCCCNCCCCN)C[C@@H]1C[C@H]3O` (stereo partly shown) [FX1A], the stability in water result was “undergo conversion to another molecule (FX 1B) rapidly in water”.
